From patent publication US4980349A, “Sulphonamides derived from diarylmethanes, the processes for preparing them and pharmaceutical compositions containing them” (SANOFI, priority 1986, dated 1990)

Assays:
[1] = tested on: foreign-body (sponge) granuloma in rats; assay: Experimental granuloma induced by foreign body, histological study; format: in vivo, Wistar rats; details: both doses (50 and 100 mg/kg) oral, 8 days; Table XI
Method: This test consists in studying the subacute cellular phase which is developed in the 8 days which follow the implantation of a foreign body, a sponge of non-resorbable plastic, in the dorsal subcutaneous connective tissue in rats.
The granulomas formed are removed 8 days after the implantation; a histological study is carried out after fixing the tissue and staining sections with hematein/ eosin. The observation is more especially concerned with the cell population of the primary phase of the formation of the granulation tissue: the reticulohistocytic cells, lymphocytes and more especially the macrophages.
The animals used are Wistar rats weighing 120-140 g and of the same origin, maintained under the same conditions of housing throughout the treatment (8 days).
The compounds of the invention are administered orally, in a gum suspension, in the morning in a fasted state, using an oesophageal tube.
After 8 days of treatment, the rats are sacrificed by decapitation and the granulomas removed and prepared for the purpose of histological examination.
The experiment conditions are as follows:
The animals are distributed in batches of 10;
Each test product is administered at 2 doses, of 50 and 100 mg, respectively, to 2 batches of 10 animals;
Ketoprofen is used by way of reference product at the same 2 doses and under the same conditions; and
A batch of 10 control animals receives no treatment.
In this experiment, on the one hand a histological study of the granulomas is performed by sampling on day 8 (results recorded in Table XIa), and on the other hand a study of the weight of the granulomas was performed 10 days after the implantation (results recorded in Table XIb).

Oral LD50 in mice = details: mouse, in vivo, female Swiss CF mice, 20 g, 14 days observation, read-out: approximate oral LD50
Method: (§1) The compounds were suspended in a 3% strength solution of gum arabic so as to supply, in a volume of 2 ml for the rats, the equivalent of 50, 100, 200, 400 and 800 mg/kg, and, in a volume of 1 ml for the mice, 100, 200, 400, 800 and 1,600 mg/kg and, for 1573 and 1579, 3,200 mg/kg.
(§2) Gavage was performed by means of a metal tube, on batches of 5 animals for each series.
(§3) The animals were observed daily for 14 days.

Oral LD50 in rats = details: rat, in vivo, male Wistar rats, 200-400 g, 14 days observation, read-out: approximate oral LD50
Method: as §1, §2, §3

[2] = tested on: rat hind foot carragheenin-induced oedema; assay: Carragheenin-induced oedema test; format: in vivo; details: 3 h, first experiment, Table X, read-out: percentage inhibition of the inflammation; for change in vivo at 25 mg/kg: 25 mg/kg oral; for change in vivo at 50 mg/kg: 50 mg/kg oral; for change in vivo at 100 mg/kg: 100 mg/kg oral
[3] = tested on: rat hind foot kaolin-induced oedema; assay: Kaolin-induced arthritis test, first experiment (decrease in inflammation, foot volume); format: in vivo; details: 1 h before kaolin, Table IX, read-out: percentage decrease in the inflammation; for change in vivo at 25 mg/kg: 25 mg/kg oral; for change in vivo at 50 mg/kg: 50 mg/kg oral; for change in vivo at 100 mg/kg: 100 mg/kg oral
Method: The […] of 0.05 ml of a sterile 10% strength suspension of kaolin into the metatarsal flexor sheath of the hind foot of a rat initially induces an oedematous reaction. An inflammatory arthritis then forms.
The early oedematous reaction appears from the first hour, and reaches its maximum between the fourth hour and the sixth hour. This is the manifestation of interest. The assessment of the volume of the foot enables the action of substances on the oedematous reaction to be studied. The measurements are carried out using a Giono and Chevilard plethysmometer.
The test products are administered orally (stomach tube) one hour before the injection of the kaolin.
The results are expressed as a percentage decrease in the inflammation in the treated animals compared with a control series of animals.
The batches are of 10 animals per dose and 10 control animals.
The figures shown represent the mean of 10 animals.

[4] = tested on: pain threshold of brewer's yeast inflamed rat hind foot; assay: Randall and Sellitto's test (analgesic activity); format: in vivo; details: first experiment, Table XII, read-out: percentage increase in the mean pain threshold; for change in vivo at 25 mg/kg: 25 mg/kg oral; for change in vivo at 50 mg/kg: 50 mg/kg oral; for change in vivo at 100 mg/kg: 100 mg/kg oral
Outline: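 Rats had 0.1 ml 20% brewer's yeast suspension injected under the hind-foot plantar aponeurosis; compounds dosed orally by stomach tube 1 h before yeast. Pain threshold was the pressure eliciting foot withdrawal, read at the 4–6 h plateau; result is % increase in mean threshold versus untreated controls, 10 rats per group.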

thromboxane synthetase [5] = assay: TXB2 production in human platelet suspension (thromboxane synthetase); format: cell-based; details: human platelets, arachidonic acid 5 μg/ml, 37° C., read-out: IC50, inhibition of the production of TXB2
Method: The platelets are incubated with arachidonic acid (5 μg/ml) in the presence of increasing doses of test products (10^-6l M to 5×10^-5 M). Platelets stimulated by arachidonic acid (AA) manufacture a large amount of thromboxane A2 (TXA2), which can be measured radioimmunologically in the form of a stable metabolite TXB2.
The assay of the amount of TXB2 in the medium is performed after a 1- to 15- minute incubation at 37° C., the measurements being made in comparison with a control suspension which has not been incubated with the test products.
Results: These are expressed as IC50, that is to say as the concentration of the test product which permits 50% inhibition of the production of TXB2.

thromboxane synthetase [6] = assay: TXB2 production in human glomeruli (renal preparation model); format: cell-based; details: arachidonic acid 5 ug/ml
Method: (§4) Human glomeruli synthesize both thromboxanes, via thromboxane synthetase, and prostaglandins, via prostacyclin synthetase. The experiment consists in stimulating glomerular cells with arachidonic acid (5 ug/ml) and in assaying radioimmunologically the amount of thromboxane B2 (TXB2) and prostacyclin (PGI2) produced in the presence of increasing concentrations of test products (10^-6 M to 5×10^-5 M).
(§5) As for the previous model, the results are expressed as IC50 in comparison with a control suspension.

[7] = tested on: biosynthesis of leukotrienes C4 (LTC4), human polymorphonuclear leukocytes; assay: LTC4 production in human polymorphonuclear leukocytes; format: cell-based; details: Leukocyte, 0.25 h, ionophore A 23187 5 μM, 15 min, 37° C., read-out: IC50, inhibition of the production of LTC4
Method: Human polymorphonuclear Leukocytes are stimulated by calcium ionophore A 23187 (Calbiochem, 5 μM), in the presence or absence of the test products.
After 15 minutes' incubation at 37° C., assay of the leukotrienes C4 (LTC4) is performed radioimmunologically.
The results are expressed as IC50, the concentration producing 50% inhibition of the production of LTC4, by comparison with a control suspension which has not been incubated in the presence of the test products.

prostacyclin synthetase = assay: PGI2 production in human glomeruli (renal preparation model); format: cell-based; details: arachidonic acid 5 ug/ml
Method: as §4, §5

5-lipoxygenase = assay: Production of LTB4 and 5-HETE by human leukocytes incubated with arachidonic acid; format: cell-based; details: ionophore A 23187 5 μM, arachidonic acid 10 μg/ml
Method: Human polymorphonuclear leukocytes suspended with arachidonic acid and stimulated by calcium ionophore produce leukotrienes B4 (LTB4).
The test consists in incubating fresh human leukocytes with arachidonic acid at a dose of 10 μg/ml to which a tracer dose of tritium-labelled arachidonic acid has been added. The leukocytes are stimulated with calcium ionophore A 23187 (Calbiochem, 5 μM) and the amount of 5-hydroxyeicosatetraenoic acid (5-HETE) and LTB4 produced is then assayed by HPLC.
5-HETE is the metabolite produced from arachidonic acid by 5-lipoxygenase, and from which LTB4 is produced by the action of an isomerase.
The results are expressed as an integration of the surface of the peak obtained in HPLC by comparison with that obtained with control leukocytes which have not been incubated with the test products.
The results in brackets are expressed as a percentage inhibition of the production of 5-HETE and LTB4.

Row | SMILES | histological study of the granuloma [1] | LD50 at 336 h (Oral LD50 in mice) | LD50 at 336 h (Oral LD50 in rats) | change in vivo at 25 mg/kg [2] | change in vivo at 50 mg/kg [2] | change in vivo at 100 mg/kg [2] | change in vivo at 25 mg/kg [3] | change in vivo at 50 mg/kg [3] | change in vivo at 100 mg/kg [3] | change in vivo at 25 mg/kg [4] | change in vivo at 50 mg/kg [4] | change in vivo at 100 mg/kg [4] | IC50 (thromboxane synthetase [5]) | IC50 (thromboxane synthetase [6]) | IC50 [7] | IC50 (prostacyclin synthetase) | 5-HETE, integration of the surface of the HPLC peak (5-lipoxygenase)
1 | O=C(c1ccccc1)c1ccccc1S(=O)(=O)NCCN1CCOCC1 [Compound 1341] | Inflammatory reaction distinctly attenuated | 250 mg/kg |  |  |  |  |  |  |  |  |  |  |  |  |  |  | 
2 | O=C(c1ccccc1)c1cc([N+](=O)[O-])ccc1S(=O)(=O)NCCCN1CCOCC1 [Compound 1361] | anti-inflammatory activity is exhibited | > 1600 mg/kg | > 800 mg/kg | -15% | -25% | -45% | -25% | -30% | -48% | 20% | 25% | 45% |  |  |  |  | 
3 | O=C(O)CCCNS(=O)(=O)c1ccc(Cl)cc1C(=O)c1ccccc1Cl [Compound 1573] | the activity is very distinct | > 3200 mg/kg |  | -17% | -28% | -50% | -15% | -30% | -52% | 20% | 35% | 60% |  |  |  |  | 
4 | O=C(O)CCCCCCCCCCCNS(=O)(=O)c1ccc(Cl)c(C(=O)c2cccs2)c1 [Compound 1813] |  |  |  |  |  |  |  |  |  |  |  |  | 11000 nM | 2000 nM | 1000 nM | > 50000 nM | 181
